In ChEMBL document CHEMBL1157287, “Steroidal saponins from the rhizomes of Polygonatum sibiricum” (J Nat Prod, 2006):

Tested on: MCF7
Assay: Cytotoxicity against human MCF7 cells by MTT assay
Type: functional, cell-based

Structure (SMILES) | IC50 [µM]
CC(=O)O[C@@H]1C[C@H](O[C@@H]2O[C@H](C)[C@H](O[C@@H]3O[C@H](CO)[C@@H](O)[C@H](O)[C@H]3O[C@@H]3O[C@H](CO)[C@@H](O)[C@H](O)[C@H]3O)[C@H](O)[C@H]2O)CC2=CC[C@H]3[C@@H]4C[C@@H]5O[C@@]6(OC[C@@H](C)[C@@H](O)[C@@H]6O)[C@@H](C)[C@@H]5[C@@]4(C)CC[C@@H]3[C@]21C | > 100
CC1CC[C@@]2(OC1)O[C@H]1C[C@H]3[C@@H]4CC=C5C[C@@H](O[C@@H]6O[C@H](CO)[C@H](O[C@@H]7O[C@H](CO)[C@@H](O)[C@H](O)[C@H]7O[C@@H]7O[C@H](CO)[C@@H](O)[C@H](O)[C@H]7O)[C@H](O)[C@H]6O)CC[C@]5(C)[C@H]4CC[C@]3(C)[C@H]1[C@@H]2C (mixture of isomers) | 24.3
